# Test results published in PubChem BioAssay AID1963422 (Molecular Pharmacology Branch, DTP, NCI, 2024).
# System: 463943-066-T-J2-PDC complex spheroid growth
# Experiment: Anticancer human tumor 463943-066-T-J2-PDC patient-derived colon adenocarcinoma cell line growth inhibition [Asc]
# Details: for IC50: curve of first compound; for viability, T/C: stronger effect = lower value
# Procedure, shortened: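 Complex solid-tumor spheroids incorporating human endothelial and mesenchymal stem cells received single agents or combinations over half-log dilution ranges anchored to clinical Cmax.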
# 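Further: compound exposure lasted 7 days.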
# 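Wherever viability, T/C is given: 100% = DMSO vehicle control wells.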
compound,measurement,setting,value
Cc1nc(N2CCC3(CC2)COC(C)C3N)c(CO)nc1Sc1ccnc(N)c1Cl (centres undefined) + CCN1C(C(=O)NC23CCC(C(=O)O)(CC2)CC3)C(c2cccc(Cl)c2F)C2(C(=O)Nc3cc(Cl)ccc32)C12CCCCC2,IC50,second compound 0.00949 µM,> 3 µM
same,IC50,second compound 0.03 µM,> 3 µM
same,IC50,second compound 0.0949 µM,> 3 µM
same,IC50,second compound 0.3 µM,> 3 µM
same,IC50,second compound 0.949 µM,> 3 µM
same,IC50,second compound 3 µM,> 3 µM
same,"viability, T/C","second compound 0.00949 µM, first compound 0.00949 µM",96.7%
same,"viability, T/C","second compound 0.00949 µM, first compound 0.03 µM",88%
same,"viability, T/C","second compound 0.00949 µM, first compound 0.0949 µM",87%
same,"viability, T/C","second compound 0.00949 µM, first compound 0.3 µM",81.5%
same,"viability, T/C","second compound 0.00949 µM, first compound 0.949 µM",82.3%
same,"viability, T/C","second compound 0.00949 µM, first compound 3 µM",63.6%
same,"viability, T/C","second compound 0.03 µM, first compound 0.00949 µM",91%
same,"viability, T/C","second compound 0.03 µM, first compound 0.03 µM",91.3%
same,"viability, T/C","second compound 0.03 µM, first compound 0.0949 µM",81.2%
same,"viability, T/C","second compound 0.03 µM, first compound 0.3 µM",82.2%
same,"viability, T/C","second compound 0.03 µM, first compound 0.949 µM",74%
same,"viability, T/C","second compound 0.03 µM, first compound 3 µM",60%
same,"viability, T/C","second compound 0.0949 µM, first compound 0.00949 µM",90.1%
same,"viability, T/C","second compound 0.0949 µM, first compound 0.03 µM",86.8%
same,"viability, T/C","second compound 0.0949 µM, first compound 0.0949 µM",76.2%
same,"viability, T/C","second compound 0.0949 µM, first compound 0.3 µM",75.7%
same,"viability, T/C","second compound 0.0949 µM, first compound 0.949 µM",71.5%
same,"viability, T/C","second compound 0.0949 µM, first compound 3 µM",61.9%
same,"viability, T/C","second compound 0.3 µM, first compound 0.00949 µM",82.7%
same,"viability, T/C","second compound 0.3 µM, first compound 0.03 µM",82.5%
same,"viability, T/C","second compound 0.3 µM, first compound 0.0949 µM",82.5%
same,"viability, T/C","second compound 0.3 µM, first compound 0.3 µM",72.2%
same,"viability, T/C","second compound 0.3 µM, first compound 0.949 µM",64%
same,"viability, T/C","second compound 0.3 µM, first compound 3 µM",59.1%
same,"viability, T/C","second compound 0.949 µM, first compound 0.00949 µM",74.3%
same,"viability, T/C","second compound 0.949 µM, first compound 0.03 µM",72.2%
same,"viability, T/C","second compound 0.949 µM, first compound 0.0949 µM",62.7%
same,"viability, T/C","second compound 0.949 µM, first compound 0.3 µM",62.3%
same,"viability, T/C","second compound 0.949 µM, first compound 0.949 µM",60.3%
same,"viability, T/C","second compound 0.949 µM, first compound 3 µM",53.2%
same,"viability, T/C","second compound 3 µM, first compound 0.00949 µM",70.7%
same,"viability, T/C","second compound 3 µM, first compound 0.03 µM",64.6%
same,"viability, T/C","second compound 3 µM, first compound 0.0949 µM",64.1%
same,"viability, T/C","second compound 3 µM, first compound 0.3 µM",63%
same,"viability, T/C","second compound 3 µM, first compound 0.949 µM",60.6%
same,"viability, T/C","second compound 3 µM, first compound 3 µM",49.6%
O=C(c1cc(Cc2n[nH]c(=O)c3ccccc23)ccc1F)N1CCN(C(=O)C2CC2)CC1 + CNC(C)C(=O)NC1CN(S(=O)(=O)c2cccc(S(=O)(=O)N3CCC4CCC(C(=O)NC(c5ccccc5)c5ccccc5)N4C(=O)C(NC(=O)C(C)NC)C3)c2)CCC2CCC(C(=O)NC(c3ccccc3)c3ccccc3)N2C1=O,IC50,second compound 0.00316 µM,> 10 µM
same,IC50,second compound 0.01 µM,> 10 µM
same,IC50,second compound 0.0316 µM,> 10 µM
same,IC50,second compound 0.1 µM,> 10 µM
same,IC50,second compound 0.316 µM,> 10 µM
same,IC50,second compound 1 µM,> 10 µM
same,"viability, T/C","second compound 0.00316 µM, first compound 0.0316 µM",91.4%
same,"viability, T/C","second compound 0.00316 µM, first compound 0.1 µM",95.9%
same,"viability, T/C","second compound 0.00316 µM, first compound 0.316 µM",96.9%
same,"viability, T/C","second compound 0.00316 µM, first compound 1 µM",103%
same,"viability, T/C","second compound 0.00316 µM, first compound 3.16 µM",89.4%
same,"viability, T/C","second compound 0.00316 µM, first compound 10 µM",86.2%
same,"viability, T/C","second compound 0.01 µM, first compound 0.0316 µM",94.1%
same,"viability, T/C","second compound 0.01 µM, first compound 0.1 µM",87.5%
same,"viability, T/C","second compound 0.01 µM, first compound 0.316 µM",91.9%
same,"viability, T/C","second compound 0.01 µM, first compound 1 µM",97.5%
same,"viability, T/C","second compound 0.01 µM, first compound 3.16 µM",110%
same,"viability, T/C","second compound 0.01 µM, first compound 10 µM",87.6%
same,"viability, T/C","second compound 0.0316 µM, first compound 0.0316 µM",98.1%
same,"viability, T/C","second compound 0.0316 µM, first compound 0.1 µM",100%
same,"viability, T/C","second compound 0.0316 µM, first compound 0.316 µM",97.4%
same,"viability, T/C","second compound 0.0316 µM, first compound 1 µM",99.2%
same,"viability, T/C","second compound 0.0316 µM, first compound 3.16 µM",92.8%
same,"viability, T/C","second compound 0.0316 µM, first compound 10 µM",82.9%
same,"viability, T/C","second compound 0.1 µM, first compound 0.0316 µM",106%
same,"viability, T/C","second compound 0.1 µM, first compound 0.1 µM",93.3%
same,"viability, T/C","second compound 0.1 µM, first compound 0.316 µM",90.6%
same,"viability, T/C","second compound 0.1 µM, first compound 1 µM",95.8%
same,"viability, T/C","second compound 0.1 µM, first compound 3.16 µM",91.3%
same,"viability, T/C","second compound 0.1 µM, first compound 10 µM",86.2%
same,"viability, T/C","second compound 0.316 µM, first compound 0.0316 µM",90.9%
same,"viability, T/C","second compound 0.316 µM, first compound 0.1 µM",91.8%
same,"viability, T/C","second compound 0.316 µM, first compound 0.316 µM",85.1%
same,"viability, T/C","second compound 0.316 µM, first compound 1 µM",98.1%
same,"viability, T/C","second compound 0.316 µM, first compound 3.16 µM",87.2%
same,"viability, T/C","second compound 0.316 µM, first compound 10 µM",91.3%
same,"viability, T/C","second compound 1 µM, first compound 0.0316 µM",90.5%
same,"viability, T/C","second compound 1 µM, first compound 0.1 µM",95%
same,"viability, T/C","second compound 1 µM, first compound 0.316 µM",84.4%
same,"viability, T/C","second compound 1 µM, first compound 1 µM",89.7%
same,"viability, T/C","second compound 1 µM, first compound 3.16 µM",85.9%
same,"viability, T/C","second compound 1 µM, first compound 10 µM",80.9%
